Data as given in patent publication US20040261961A1, “Wood treatment solution and process for improving the preservation of wood” (priority 2001, published 2004).
Like-named read-outs stand apart in the source and are kept apart here.

Key:
Gloeophyllum trabeum = tested on: Gloeophyllum trabeum
Protocol: (§1) The tests were carried out by using test specimens made from spruce or pine wood. The size of specimens made of pine was approx. 20×15×2.4 cm^3 and respectively the size of the specimens made from spruce was approx. 20×12×7.2 cm^3. One half of the wood specimens were subjected to a heat treatment at 190° C. […] One half of the specimens were subjected to no heat treatment. The wood specimens were measured and weighed before the chemical treatment. Neither chemical nor heat treatment was carried out on the reference specimens that were used in the accelerated rotting tests described below.
(§2) The temperature of the solution was 40-50° C. In the vessel there prevailed a pressure of approx. 150 kPa (1.5 bar), by means of which the solution was “forced” into the wood. The treatment time was 2 h. After the chemical treatment the wood specimens were dried in an incubator overnight at 80-90° C.
(§3) In the next phase the specimens treated above were sent to a rot fungus test. European standard EN 113 was applied in carrying out the test. The wood was exposed to conditions as rigorous as possible with respect to decay: temperature was approx. 30° C. and humidity 100%, and bad rot fungi such as Poria placenta, Gloeophyllum trabeum and Coniophora puteana had been introduced into the testing space (culture flask). These fungi are present in all rotting objects. The test lasted for 4 months. […] The rotting of such wood should in an accelerated rotting test be such that the weight loss is at least 20% with each fungus species. The specimens were weighed before the beginning of the test.
(§4) The results of the accelerated rotting tests for spruce are shown in Tables 2-4 and for pine in Tables 5-7.

Poria placenta = tested on: Poria placenta
Protocol: as §1, §2, §3, §4

Coniophora puteana = tested on: Coniophora puteana
Protocol: as §1, §2, §3, §4

[1] = tested on: Poria placenta, Gloeophyllum trabeum and Coniophora puteana; settings: Ca formate treatment in addition to heat treatment
Protocol: as §3, §4

rot fungi = settings: closed and humid space containing rot fungi; potassium formate dissolved in water
Protocol: Next, a test was performed in which a piece of wood was impregnated with potassium formate. This and an untreated wood specimen were placed in a closed and humid space containing rot fungi.

[2] = board kept several days in strong potassium formate solution; buried in garden plot from summer to following summer
Source text: A board specimen was kept for several days in a strong potassium formate solution. After impregnation, the board was in summer buried in a garden plot together with untreated board taken from the same board specimen.

Structure (SMILES) | Rot resistance class according to standard EN 350-1994 (Gloeophyllum trabeum; treated pine) | Rot resistance class according to standard EN 350-1994 (Gloeophyllum trabeum; treated spruce) | Rot resistance class according to standard EN 350-1994 (Poria placenta; treated pine) | Rot resistance class according to standard EN 350-1994 (Poria placenta; treated spruce) | Rot resistance class according to standard EN 350-1994 (Coniophora puteana; treated pine) | Rot resistance class according to standard EN 350-1994 (Coniophora puteana; treated spruce) | Rotting of wood (overall conclusion) [1] | Decay activity in the experimental space (rot fungi) | Decay of impregnated board after burial [2]
O=C[O-].O=C[O-].[Ca+2] [Ca formate, calcium formate] | Class 1 | Class 1 | Class 3 | Class 3 | Class 1 | Class 1 | prevented almost completely | – | –
O=C[O-].[K+] [potassium formate] | – | – | – | – | – | – | – | inhibited all decay activity | without any decay
